According to the supplement of paper PMC10307832:

How the values were obtained:
Experiment in all cases: relative viability (nuclei count vs DMSO), 5 days (fraction); higher = more cells survive
[1] = compound: CCC1=CN=CN=C1N2CCN(CC2)CC3=NC4=C(N3)C=C(C=C4)C(F)(F)F + CC(C)C[C@H](NC(=O)[C@H](Cc1ccccc1)NC(=O)c1cnccn1)B(O)O [Bortezomib] (partner 0.002 µM)
How it was run: (§1)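 Medians of duplicate plates are given as relative viability. That measure is the nuclei count in treated wells divided by the count in vehicle wells. Counts were taken on 4× images of lung cancer cell lines in 1536-well plates, 5 days after pin-tool dosing the day after seeding with one drug alone or a fixed anchor-drug dose plus five library-drug doses (not always all listed) in √10 steps.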

[2] = compound: CCC1=CN=CN=C1N2CCN(CC2)CC3=NC4=C(N3)C=C(C=C4)C(F)(F)F + COc1cc2c(Oc3ccc(NC(=O)C4(C(=O)Nc5ccc(F)cc5)CC4)cc3F)ccnc2cc1OCCCN1CCOCC1 [Foretinib] (partner 0.25 µM)
How it was run: as §1

[3] = compound: CCn1c(-c2nonc2N)nc2cnc(Oc3cccc(NC(=O)c4ccc(OCCN5CCOCC5)cc4)c3)cc21 + Cc1cc(Nc2cc(N3CCN(C)CC3)nc(Sc3ccc(NC(=O)C4CC4)cc3)n2)n[nH]1 [Tozasertib] (partner 0.1 µM)
How it was run: as §1

Mirin + Vorinostat = compound: N=C1NC(=O)/C(=C/c2ccc(O)cc2)S1 [Mirin] + O=C(CCCCCCC(=O)Nc1ccccc1)NO [Vorinostat] (partner 1 µM)
How it was run: as §1

Row | Cell Line | relative viability ([1]; first compound 0.04 µM) | relative viability ([1]; first compound 0.1265 µM) | relative viability ([1]; first compound 0.4 µM) | relative viability ([1]; first compound 1.265 µM) | relative viability ([1]; first compound 4 µM) | relative viability ([2]; first compound 0.04 µM) | relative viability ([2]; first compound 0.1265 µM) | relative viability ([2]; first compound 0.4 µM) | relative viability ([2]; first compound 1.265 µM) | relative viability ([2]; first compound 4 µM) | relative viability ([3]; first compound 0.04 µM) | relative viability ([3]; first compound 0.1265 µM) | relative viability ([3]; first compound 0.4 µM) | relative viability ([3]; first compound 1.265 µM) | relative viability ([3]; first compound 4 µM) | relative viability (Mirin + Vorinostat; first compound 0.25 µM) | relative viability (Mirin + Vorinostat; first compound 0.7906 µM) | relative viability (Mirin + Vorinostat; first compound 2.5 µM) | relative viability (Mirin + Vorinostat; first compound 7.906 µM) | relative viability (Mirin + Vorinostat; first compound 25 µM)
1 | LCLC-103H | 1.04 | 0.959 | 1.07 | 1.07 | 1.18 | 0.917 | 0.852 | 0.757 | 0.644 | 0.688 | 0.508 | 0.463 | 0.534 | 0.465 | 0.419 | 0.774 | 0.695 | 0.79 | 0.793 | 0.868
2 | LOU-NH91 | 0.408 | 0.543 | 0.507 | 0.523 | 0.504 | 0.863 | 0.984 | 0.909 | 0.966 | 0.92 | 0.631 | 0.518 | 0.45 | 0.353 | 0.369 | 0.908 | 0.902 | 1 | 0.843 | 1.16
3 | LU99A | 1.23 | 1.07 | 1.05 | 1.07 | 1.24 | 0.744 | 0.751 | 0.771 | 0.804 | 0.87 | 0.293 | 0.295 | 0.295 | 0.233 | 0.199 | 0.44 | 0.44 | 0.474 | 0.457 | 0.33
4 | LXF-289 | 1.07 | 0.953 | 0.971 | 1.04 | 0.917 | 1.03 | 0.949 | 0.971 | 0.937 | 0.934 | 0.221 | 0.198 | 0.195 | 0.104 | 0.0834 | 0.727 | 0.818 | 0.713 | 0.8 | 0.836
5 | NCI-H23 | 0.868 | 1.13 | 0.905 | 0.98 | 1.16 | 0.822 | 0.99 | 0.961 | 0.801 | 0.906 | 0.364 | 0.34 | 0.333 | 0.291 | 0.322 | 0.624 |  | 0.565 | 0.54 | 0.601
6 | NCI-H322M | 1.37 | 1.17 | 1.2 | 1.3 | 1.39 | 1.08 | 0.907 | 0.939 | 0.953 | 0.925 | 0.481 | 0.466 | 0.459 | 0.366 | 0.403 | 1 | 0.87 | 0.93 | 1.28 | 1.11
7 | NCI-H441 | 0.523 | 0.366 | 0.301 | 0.356 | 0.383 | 0.96 | 1.07 | 0.938 | 0.884 | 0.993 | 0.834 | 0.546 |  | 0.344 | 0.354 | 0.805 | 0.933 | 0.806 | 0.752 | 0.896
8 | NCI-H460 | 1.11 | 1.1 | 0.977 | 1.06 | 0.951 | 1.05 | 1.03 | 0.999 | 1.06 | 0.964 | 0.563 | 0.601 | 0.311 | 0.036 | 0.0635 | 0.709 | 0.824 | 0.666 | 0.687 | 0.685
